This note sets out measurements from patent US8507538B2, “Selective heterocyclic sphingosine 1 phosphate receptor modulators” (Receptos, Inc., priority 2009, dated 2013).

Experiment [1] relates to CD4 or CD8 positive T cells. As to the kind of experiment: Lymphopenia in rats. The class given is in vivo. To be noted: rat, 24 h after a 0.2 mg/kg single dose. The protocol: In rats: Female rats (Simonsen Laboratories, Gilroy Calif.) were housed in an ALAAC accredited facility and the research was approved by the facilities Institutional Animal Care and Use Committee (IACUC). The animals were acclimated to the laboratory for at least 5 days prior to initiation of experiments. Rats (n=3/compound/time-point) were dosed by oral gavage with 1 mg/kg compound formulated in a vehicle consisting of 5% DMSO/5% Tween 20 and 90% 0.1N HCL. Control rats were dosed PO with the vehicle. Whole blood was collected from isoflurane anesthetized rats via the retro-orbital sinus and terminal samples were collected by cardiac puncture into EDTA. Whole blood was incubated with mouse anti-rat CD32 (BD #550271), PE-mouse anti-rat CD45R/B220 (BD #554881), PECy5-mouse anti-rat CD4 (BD #554839), and APC-mouse anti-rat CD8a (eBioscience #17-0084) for 30 minutes on ice. Red blood cells were lysed using BD Pharm. Lyse Lysing buffer (#555899) and white blood cells were analyzed with a BD FACSArray. Lymphopenia was expressed as the % of white blood cells that were CD4 or CD8 positive T cells. The overall lymphopenia response over 24 h was estimated by calculating the area under the effect curve (AUEC) using the linear trapezoidal rule. In some experiments, total lymphocyte counts were determined using a standard impediance based veterinary hematology analyzer (IDEXX Preclinical Research Services, Sacramento, Calif.).
The percentage of lymphopenia at 24 h after a 0.2 mg/kg single dose regiment is reported. […] N/A is not available.

Another experiment concerns the target T1, S1P4 (Homo sapiens, UniProt O95977).
T1 construct: Tango fusion (own knowledge: TEV protease site + GAL4-VP16 transcription factor fused to the receptor's C-terminus); host or cells: Tango bla U2OS
T1 sequence (O95977 1-384): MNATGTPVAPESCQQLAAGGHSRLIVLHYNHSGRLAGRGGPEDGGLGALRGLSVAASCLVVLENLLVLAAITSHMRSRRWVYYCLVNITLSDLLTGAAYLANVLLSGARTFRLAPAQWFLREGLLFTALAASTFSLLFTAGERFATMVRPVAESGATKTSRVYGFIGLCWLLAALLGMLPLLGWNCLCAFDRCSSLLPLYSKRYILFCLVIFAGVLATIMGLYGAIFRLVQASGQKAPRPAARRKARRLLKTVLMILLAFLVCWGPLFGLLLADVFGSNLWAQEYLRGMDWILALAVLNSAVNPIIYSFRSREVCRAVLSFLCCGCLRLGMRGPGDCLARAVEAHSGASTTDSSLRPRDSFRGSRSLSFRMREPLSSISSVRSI
The experiment can be described thus: Specificity over other S1P receptors: S1P4-bla TANGO U2OS. To be noted: without Forskolin, FreeStyle Expression medium; read-out: S1P4 agonist value (EC50). In kind it is cell-based. The protocol: (§1) Cells were seeded into 384-well black wall/clear bottom plates at 10^4 cells/well/19.5 μl assay media (DMEM-phenol free, 0.5% charcoal/dextran stripped serum, 2 mM glutamine, 0.1 mM NEAA, 1 mM Na-Pyruvate, 25 mM Hepes) and incubated for 18 hrs at 37° C. in 5% CO2. Dose response curves (10-point) were generated in 10 mM Hepes, 0.1% Pluronic F127, in the presence of Forskolin. Cells were treated with 0.5 μl compound in the presence of 2 μM Forskolin for 4 hrs at 37° C. The FRET-based β-lactamase fluorescent substrate (LiveBLAzer™ FRET B/G Loading Kit CC4-AM; Invitrogen) was prepared according to manufacturer's directions, and incubated with cells for 2 hrs at room temperature. Plates were read at Ex:410/Em:458 and Ex:410/Em:522, and the response ratio determined. Data was analyzed by non-linear regression to determine the EC50 for inhibition of Forskolin induced cAMP.
(§2) To assess compound specificity on other S1P receptors the following cell lines were used: S1P2 CRE-bla CHOK1, S1P3-Gα15 NFAT-bla HEK293T (Invitrogen), S1P4-bla TANGO U2OS (Invitrogen), S1P5-bla TANGO U2OS (Invitrogen). The same assay set up for S1P1 was used but without Forskolin. S1P4 and S1P5 assays were performed in FreeStyle Expression medium (Invitrogen). S1P5 cells were incubated for 48 hrs in prior to treatment with compound.

The target of the next experiment is S1P1/EDG1 (Homo sapiens, UniProt P21453). As to the kind of experiment: S1P1 CRE-bla CHOK1 reporter assay (inhibition of Forskolin induced cAMP). The class given is cell-based. The method in brief: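 Stable CRE-bla CHO-K1 clone expressing human S1P1, serum-starved (0.5% stripped serum) 18 h, then treated with compound (10-point curve) plus 2 μM forskolin for 4 h at 37 °C. β-lactamase FRET ratio (458/522 nm) read after 2 h substrate loading; EC50 for inhibition of forskolin-induced cAMP by non-linear regression.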

A further experiment addresses T2, S1P5 (Homo sapiens, UniProt Q9H228).
T2 construct: Tango fusion (own knowledge: TEV protease site + GAL4-VP16 transcription factor fused to the receptor's C-terminus); host or cells: Tango bla U2OS
As to the kind of experiment: Specificity over other S1P receptors: S1P5-bla TANGO U2OS. The class given is cell-based. To be noted: without Forskolin, FreeStyle Expression medium; read-out: S1P5 agonist value (EC50). The protocol: as §1, §2

Another experiment addresses T3, S1P3 (Homo sapiens, UniProt Q99500).
T3 construct: host or cells: NFAT-bla HEK293T co-expressing Gα15
As to the kind of experiment: Specificity over other S1P receptors: S1P3-Gα15 NFAT-bla HEK293T. In kind it is cell-based. Particulars: without Forskolin; read-out: S1P3 agonist value (EC50). As for the experimental part:
as §1, §2

The next experiment deals with T4, S1P2 (Homo sapiens, UniProt O95136).
T4 construct: expressed in transfected cells; host or cells: CRE-bla CHOK1
As to the kind of experiment: Specificity over other S1P receptors: S1P2 CRE-bla CHOK1. The class given is cell-based. Particulars: without Forskolin; read-out: S1P2 agonist value (EC50). As for the experimental part: as §1, §2

The mark [2] stands for this setting: Table 3, read-out: S1P1 agonist value (EC50).

Like-named read-outs stand apart in the source and are kept apart here.

For orientation: inhibition in vivo means the change of the read-out against control, counted positive when it falls. Low values mean little suppression, high ones strong suppression.

Sequence of S1P1/EDG1 (P21453 whole entry): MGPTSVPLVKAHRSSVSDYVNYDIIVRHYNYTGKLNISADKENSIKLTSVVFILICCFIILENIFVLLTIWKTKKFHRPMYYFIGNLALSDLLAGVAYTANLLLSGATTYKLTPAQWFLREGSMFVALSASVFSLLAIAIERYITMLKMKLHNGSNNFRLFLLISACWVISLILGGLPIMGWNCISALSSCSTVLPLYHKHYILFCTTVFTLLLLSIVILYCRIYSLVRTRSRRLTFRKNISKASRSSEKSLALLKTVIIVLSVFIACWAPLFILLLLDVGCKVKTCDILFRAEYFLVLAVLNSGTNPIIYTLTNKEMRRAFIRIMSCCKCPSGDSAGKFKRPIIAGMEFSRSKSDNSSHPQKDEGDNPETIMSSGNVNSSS
T2 sequence (Q9H228 whole entry, the tested form may be a part): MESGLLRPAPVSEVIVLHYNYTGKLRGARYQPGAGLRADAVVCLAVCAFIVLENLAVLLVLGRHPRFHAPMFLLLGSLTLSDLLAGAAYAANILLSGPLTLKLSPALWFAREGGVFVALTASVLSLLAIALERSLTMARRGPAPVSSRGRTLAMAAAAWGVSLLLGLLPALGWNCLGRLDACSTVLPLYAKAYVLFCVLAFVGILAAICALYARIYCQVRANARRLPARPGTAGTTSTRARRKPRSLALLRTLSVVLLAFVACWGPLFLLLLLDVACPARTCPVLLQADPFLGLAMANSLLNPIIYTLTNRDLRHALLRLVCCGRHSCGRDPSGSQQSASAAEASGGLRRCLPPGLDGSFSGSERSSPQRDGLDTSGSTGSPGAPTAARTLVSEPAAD
T4 sequence (O95136 whole entry, species assumed): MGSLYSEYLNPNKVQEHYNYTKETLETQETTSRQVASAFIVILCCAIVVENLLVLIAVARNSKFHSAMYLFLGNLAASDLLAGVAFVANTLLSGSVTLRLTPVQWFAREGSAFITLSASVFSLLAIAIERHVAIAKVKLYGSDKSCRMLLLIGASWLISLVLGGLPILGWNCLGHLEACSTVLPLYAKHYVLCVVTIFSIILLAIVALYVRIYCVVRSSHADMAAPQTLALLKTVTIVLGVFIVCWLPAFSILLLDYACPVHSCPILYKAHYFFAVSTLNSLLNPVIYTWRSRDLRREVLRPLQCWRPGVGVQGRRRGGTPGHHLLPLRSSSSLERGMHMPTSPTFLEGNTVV
T3 sequence (Q99500 whole entry): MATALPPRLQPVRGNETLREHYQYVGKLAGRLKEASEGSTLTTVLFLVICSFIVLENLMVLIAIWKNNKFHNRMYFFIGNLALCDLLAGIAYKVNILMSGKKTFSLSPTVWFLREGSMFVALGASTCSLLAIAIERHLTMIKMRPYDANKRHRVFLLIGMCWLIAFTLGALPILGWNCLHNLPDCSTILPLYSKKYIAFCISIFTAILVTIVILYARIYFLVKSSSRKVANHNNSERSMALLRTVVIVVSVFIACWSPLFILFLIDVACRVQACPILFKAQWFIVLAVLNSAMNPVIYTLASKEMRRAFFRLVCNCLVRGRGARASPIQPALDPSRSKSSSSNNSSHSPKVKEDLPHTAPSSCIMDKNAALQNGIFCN

Regarding “(R)-N-(4-(5-(3-cyano-4-isopropoxyphenyl)-1,3,4-thiadiazol-2-yl)-2,3-dihydro-1H-inden-1-yl)-2-hydroxyethanesulfonamide [Compound 46]”, in experiment [1], the “% Lymphopenia after 24 h (0.2 mg/kg)” value is on record as 39%. For the same compound, the EC50 at S1P4 stood at 2170 nM; at S1P1/EDG1 (setting [2]) it was 0.25 nM; on S1P5, 194 nM.
On to `CC(C)Oc1ccc(-c2nnc(-c3cccc4c3CC[C@@H]4NS(N)(=O)=O)s2)cc1C#N` [Compound 47, (S)-N-(4-(5-(3-cyano-4-isopropoxyphenyl)-1,3,4-thiadiazol-2-yl)-2,3-dihydro-1H-inden-1-yl)sulfamide], for which 0.2 mg/kg produced 17% inhibition in vivo in experiment [1] (CD8 positive, po). In addition, the EC50 was above 10000 nM on S1P4; 0.03 nM at S1P1/EDG1 (setting [2]); below 0.05 nM on S1P1/EDG1 (agonist activity range, Table 2, read-out: S1P1 ACTIVITY); above 10000 nM on S1P3; above 10000 nM at S1P2; 22 nM on S1P5.
